In ChEMBL document CHEMBL4376806, “Antibiotic Adjuvants: Make Antibiotics Great Again!” (2019):
Each block holds one compound with its values, some of them ahead of it.

Columns and labels:
Type in all cases: functional
Klebsiella aerogenes [1] = test: Potentiation of doxycycline-induced antibacterial activity against Enterobacter aerogenes EA289 assessed as doxycycline MIC at 2 ug/ml after 24 hrs by broth microdilution method (reference value: 40 ug/ml); conditions: EA289, 24 h
Pseudomonas aeruginosa [2] = test: Potentiation of doxycycline-induced antibacterial activity against Pseudomonas aeruginosa PAO1 assessed as doxycycline MIC at 2 ug/ml after 24 hrs by broth microdilution method (reference value: 16 ug/ml); conditions: PAO1, 24 h
Pseudomonas aeruginosa [3] = test: Potentiation of doxycycline-induced antibacterial activity against Pseudomonas aeruginosa PAO1 assessed as doxycycline MIC at 1.22 ug/ml by broth micro-dilution method (reference value: 32 ug/ml)
Pseudomonas aeruginosa [4] = test: Synergistic antibacterial activity against Pseudomonas aeruginosa assessed as fractional inhibitory concentration index in presence of doxycycline after 18 hrs by checkerboard assay
Escherichia coli [5] = test: Potentiation of cefepime-induced antibacterial activity against Escherichia coli AG100 assessed as cefepime MIC at 0.4 ug/ml after 18 hrs (reference value: 0.5 ug/ml); conditions: AG100, 18 h
Escherichia coli [6] = test: Potentiation of ciprofloxacin-induced antibacterial activity against Escherichia coli AG100 assessed as ciprofloxacin MIC at 0.4 ug/ml after 18 hrs (reference value: 0.25 ug/ml); conditions: AG100, 18 h
Klebsiella aerogenes [7] = test: Potentiation of chloramphenicol-induced antibacterial activity against Enterobacter aerogenes ATCC 13048 assessed as chloramphenicol MIC at 1.6 ug/ml after 18 hrs (reference value: 4 ug/ml); conditions: ATCC 13048, 18 h
Klebsiella aerogenes [8] = test: Potentiation of tetracycline-induced antibacterial activity against Enterobacter aerogenes ATCC 13048 assessed as tetracycline MIC at 1.6 ug/ml after 18 hrs (reference value: 2 ug/ml); conditions: ATCC 13048, 18 h
Klebsiella aerogenes [9] = test: Potentiation of cefepime-induced antibacterial activity against Enterobacter aerogenes ATCC 13048 assessed as cefepime MIC at 1.6 ug/ml after 18 hrs (reference value: 0.25 ug/ml); conditions: ATCC 13048, 18 h
Pseudomonas aeruginosa [10] = test: Potentiation of erythromycin-induced antibacterial activity against Pseudomonas aeruginosa PAO1 assessed as erythromycin MIC at 3.2 ug/ml after 18 hrs (reference value: 512 ug/ml); conditions: PAO1, 18 h
Klebsiella aerogenes [11] = test: Potentiation of erythromycin-induced antibacterial activity against Enterobacter aerogenes ATCC 13048 assessed as erythromycin MIC at 1.6 ug/ml after 18 hrs (reference value: 512 ug/ml); conditions: ATCC 13048, 18 h
Pseudomonas aeruginosa [12] = test: Potentiation of tetracycline-induced antibacterial activity against Pseudomonas aeruginosa PAO1 assessed as tetracycline MIC at 3.2 ug/ml after 18 hrs (reference value: 16 ug/ml); conditions: PAO1, 18 h
Pseudomonas aeruginosa [13] = test: Potentiation of ciprofloxacin-induced antibacterial activity against Pseudomonas aeruginosa PAO1 assessed as ciprofloxacin MIC at 3.2 ug/ml after 18 hrs (reference value: 16 ug/ml); conditions: PAO1, 18 h
Escherichia coli [14] = test: Potentiation of tetracycline-induced antibacterial activity against Escherichia coli AG100 assessed as tetracycline MIC at 0.4 ug/ml after 18 hrs (reference value: 2 ug/ml); conditions: AG100, 18 h
Pseudomonas aeruginosa [15] = test: Potentiation of chloramphenicol-induced antibacterial activity against Pseudomonas aeruginosa PAO1 assessed as chloramphenicol MIC at 3.2 ug/ml after 18 hrs (reference value: 512 ug/ml); conditions: PAO1, 18 h
Escherichia coli [16] = test: Potentiation of erythromycin-induced antibacterial activity against Escherichia coli AG100 assessed as erythromycin MIC at 0.4 ug/ml after 18 hrs (reference value: 512 ug/ml); conditions: AG100, 18 h
Escherichia coli [17] = test: Potentiation of chloramphenicol-induced antibacterial activity against Escherichia coli AG100 assessed as chloramphenicol MIC at 0.4 ug/ml after 18 hrs (reference value: 8 ug/ml); conditions: AG100, 18 h
Klebsiella aerogenes [18] = test: Potentiation of ciprofloxacin-induced antibacterial activity against Enterobacter aerogenes ATCC 13048 assessed as ciprofloxacin MIC at 1.6 ug/ml after 18 hrs (reference value: 0.5 ug/ml); conditions: ATCC 13048, 18 h
Pseudomonas aeruginosa [19] = test: Potentiation of cefepime-induced antibacterial activity against Pseudomonas aeruginosa PAO1 assessed as cefepime MIC at 3.2 ug/ml after 18 hrs (reference value: 8 ug/ml); conditions: PAO1, 18 h
Pseudomonas aeruginosa [20] = test: Potentiation of doxycycline-induced antibacterial activity against Pseudomonas aeruginosa PAO1 assessed as doxycycline MIC at 2.5 uM after 18 hrs (reference value: 20 ug/ml); conditions: PAO1, 18 h
Klebsiella aerogenes [21] = test: Potentiation of doxycycline-induced antibacterial activity against Enterobacter aerogenes EA289 assessed as doxycycline MIC at 2.5 uM after 18 hrs (reference value: 40 ug/ml); conditions: EA289, 18 h
Klebsiella pneumoniae = test: Potentiation of doxycycline-induced antibacterial activity against Klebsiella pneumoniae KPC2 assessed as doxycycline MIC at 2.5 uM after 18 hrs (reference value: 10 ug/ml); conditions: KPC2, 18 h
Pseudomonas aeruginosa [22] = test: Potentiation of doxycycline-induced antibacterial activity against Pseudomonas aeruginosa PAO1 assessed as doxycycline MIC at 1.25 uM after 18 hrs (reference value: 20 ug/ml); conditions: PAO1, 18 h
Klebsiella aerogenes [23] = test: Potentiation of doxycycline-induced antibacterial activity against Enterobacter aerogenes EA289 assessed as doxycycline MIC at 5 uM after 18 hrs (reference value: 40 ug/ml); conditions: EA289, 18 h
Escherichia coli [24] = test: Potentiation of novobiocin-induced antibacterial activity against Escherichia coli W3110 assessed as novobiocin MIC at 8 ug/ml after 20 hrs by liquid microdilution method (reference value: 128 ug/ml); conditions: K-12 substr. W3110, 20 h
Escherichia coli [25] = test: Potentiation of erythromycin-induced antibacterial activity against Escherichia coli W3110 assessed as erythromycin MIC at 8 ug/ml after 20 hrs by liquid microdilution method (reference value: 64 ug/ml); conditions: K-12 substr. W3110, 20 h

Structure (SMILES): CC(C)OC(=O)CC[C@@H](C)[C@H]1CC[C@H]2[C@@H]3CC[C@H]4C[C@@H](NCCCNCCCNCCCCNCCCN)CC[C@]4(C)[C@H]3C[C@H](O)[C@]12C
MIC (Klebsiella aerogenes [1]): 0.5 µg/mL | MIC (Pseudomonas aeruginosa [2]): 2 µg/mL

Structure (SMILES): CC(C)=C/C=C\C(C)=C/CC/C(C)=C/CNCCCNCCCCNCCCN.Cl.Cl.Cl.Cl
MIC (Pseudomonas aeruginosa [3]): 2 µg/mL | fractional inhibitory concentration index (FICI) (Pseudomonas aeruginosa [4]): 0.09

Structure (SMILES): Cl.Cl.Cl.NCCCNCCCNC1CCCCCCCCCCCCCC1
MIC (Pseudomonas aeruginosa [20]): 2 µg/mL | MIC (Klebsiella aerogenes [21]): 2 µg/mL | MIC (Klebsiella pneumoniae): 2 µg/mL

Structure (SMILES): COc1ccccc1CNCCCCCCNCCCCCCCCNCCCCCCNCc1ccccc1OC [METHOCTRAMINE]
MIC (Escherichia coli [24]): 16 µg/mL | MIC (Escherichia coli [25]): 16 µg/mL

Second part, the compound after the results:

MIC (Escherichia coli [5]): 0.06 µg/mL | MIC (Escherichia coli [6]): 0.03 µg/mL | MIC (Klebsiella aerogenes [7]): 0.25 µg/mL | MIC (Klebsiella aerogenes [8]): 0.25 µg/mL | MIC (Klebsiella aerogenes [9]): 0.03 µg/mL | MIC (Pseudomonas aeruginosa [10]): 256 µg/mL | MIC (Klebsiella aerogenes [11]): 128 µg/mL | MIC (Pseudomonas aeruginosa [12]): 4 µg/mL | MIC (Pseudomonas aeruginosa [13]): < 1 µg/mL | MIC (Escherichia coli [14]): 0.125 µg/mL | MIC (Pseudomonas aeruginosa [15]): 16 µg/mL | MIC (Escherichia coli [16]): 256 µg/mL | MIC (Escherichia coli [17]): 0.5 µg/mL | MIC (Klebsiella aerogenes [18]): 0.015 µg/mL | MIC (Pseudomonas aeruginosa [19]): 1 µg/mL
Structure (SMILES): CC(C)[C@@H](CC[C@@H](C)[C@H]1CC[C@H]2[C@@H]3[C@H](O)C[C@H]4C[C@@H](NCCCNCCCCN)CC[C@]4(C)[C@H]3CC[C@]12C)OS(=O)(=O)O [SQUALAMINE]

MIC (Pseudomonas aeruginosa [22]): 2 µg/mL | MIC (Klebsiella aerogenes [23]): 2 µg/mL | MIC (Klebsiella pneumoniae): 2 µg/mL
Structure (SMILES): Cl.Cl.Cl.NCCCCNCCCCNC1CCCCCCCCCCCCCC1
